Test results taken from US10383948B2, “Anti-cMet antibody drug conjugates and methods for their use” (AbbVie Inc., priority 2016, dated 2019).

What was measured:
CTG-0382 colorectal PDX = assay: Patient-derived xenograft, tumor growth delay; type: in vivo, NSG mice; conditions: PDX CTG-0382 (Colorectal); every seven days, six doses; median time to 1 cm^3 vs control
Procedure: (§1) Tumor fragments of 3 to 5 mm^3 at passage 3 (P3) were implanted subcutaneously in the right rear flank of NSG mice (The Jackson Laboratory) with a trochar. ABBV-399 and ABT-700 PBD were administered every seven days for a total of six doses. […] For all groups, tumor volumes were plotted only for the duration that allowed the full set of animal to remain on study. If animals had to be taken off study, the remaining animals were monitored for tumor growth until they reached defined end-points.

CTG-0419 colorectal PDX = assay: Patient-derived xenograft, tumor growth delay; type: in vivo, NSG mice; conditions: PDX CTG-0419 (Colorectal); every seven days, six doses; median time to 1 cm^3 vs control
Procedure: as §1

CTG-0115 colorectal PDX = assay: Patient-derived xenograft, tumor growth delay; type: in vivo, NSG mice; conditions: PDX CTG-0115 (Colorectal); every seven days, six doses; median time to 1 cm^3 vs control
Procedure: as §1

CTG-0363 NSCL PDX = assay: Patient-derived xenograft, tumor growth delay; type: in vivo, NSG mice; conditions: PDX CTG-0363 (NSCL); every seven days, six doses; median time to 1 cm^3 vs control
Procedure: as §1

CTG-0170 NSCL PDX = assay: Patient-derived xenograft, tumor growth delay; type: in vivo, NSG mice; conditions: PDX CTG-0170 (NSCL); every seven days, six doses; median time to 1 cm^3 vs control
Procedure: as §1

NCI-H820 = assay: Cytotoxicity assay (CellTiter-Glo, 6 days); type: cell-based, human; conditions: NCI-H820 lung cancer; relative to untreated control at ≤1 μg/mL in a six day proliferation
Procedure: (§2) Tumor cells were plated at 2000-5000 cells/well in 180 μL growth medium containing 10% FBS in 96-well plates, and cultured at 37° C. in a humidified incubator with 5% C02. The following day, titrations of antibodies or ADCs in 20 μL were added and cells were incubated for 6 days. Cell viability was determined using a CellTiter-Glo Luminescent Cell Viability Assay (Promega) according to the manufacturer's instructions.
as §2, with “of” for “of antibodies or”

[1] = test system: NSCLC squamous cell carcinoma; assay: Phase 1 overall response versus H score; type: in vivo, human; conditions: three patients, 2.7 mg/kg once every 3 weeks, IHC scores between 150 to 224
Source text: (§3) The IHC score was obtained using the protocol described in Example 17.

NSCLC adenocarcinoma = assay: Phase 1 overall response versus H score; type: in vivo, human; conditions: IHC scores of 225 or greater
Source text: as §3

[2] = test system: Hs746T ABT-700R xenografts; assay: ABT-700-refractory xenograft efficacy; type: in vivo, mice
[3] = test system: EBC-1 ABT-700R xenograft tumors; assay: ABT-700-refractory xenograft efficacy; type: in vivo, mice; conditions: EBC-1, ABT-700 followed by ABBV-399; FIG. 12C
[4] = test system: Hs746T gastric cancer xenografts; assay: Hs746T xenograft efficacy
Procedure: Female SCID, SCID-Beige and nude mice were obtained from Charles River (Wilmington, Mass.) and housed at ten mice per cage. The body weight upon arrival was 20-22 g. Food and water were available ad libitum. Mice were acclimated to the animal facilities for a period of at least one week prior to commencement of experiments. Animals were tested in the light phase of a 12-hr light: 12-hr dark schedule (lights on at 06:00 hours).
Each experimental group included 8-10 animals.
Tumor volumes are depicted as mean±S.E.M.

SNU-5 = assay: Cytotoxicity assay (CellTiter-Glo, 6 days); type: cell-based, human
Procedure: as §2, with “instructions. A non-binding, irrelevant negative control ADC conjugated to MMAE was also included in all assays to confirm that cell killing was antigen dependent.” for “instructions.”

MCF-7 = assay: Cytotoxicity assay (CellTiter-Glo, 6 days); type: cell-based, human; conditions: MCF-7 breast cancer; relative to untreated control at ≤1 μg/mL in a six day proliferation
Procedure: as §2, with “instructions. A non-binding, irrelevant negative control ADC conjugated to MMAE was also included in all assays to confirm that cell killing was antigen dependent.” for “instructions.”

MDA-MB-231 = assay: Cytotoxicity assay (CellTiter-Glo, 6 days); type: cell-based, human; conditions: MDA-MB-231 breast cancer; relative to untreated control at ≤1 μg/mL in a six day proliferation
Procedure: as §2, with “instructions. A non-binding, irrelevant negative control ADC conjugated to MMAE was also included in all assays to confirm that cell killing was antigen dependent.” for “instructions.”

IM-95 = assay: Cytotoxicity assay (CellTiter-Glo, 6 days); type: cell-based, human; conditions: IM-95 gastric cancer
Procedure: as §2, with “instructions. A non-binding, irrelevant negative control ADC conjugated to MMAE was also included in all assays to confirm that cell killing was antigen dependent.” for “instructions.”

HT-29 = assay: Cytotoxicity assay (CellTiter-Glo, 6 days); type: cell-based, human; conditions: HT-29 colorectal cancer
Procedure: as §2, with “instructions. A non-binding, irrelevant negative control ADC conjugated to MMAE was also included in all assays to confirm that cell killing was antigen dependent.” for “instructions.”

SNU-620 = assay: Cytotoxicity assay (CellTiter-Glo, 6 days); type: cell-based, human; conditions: SNU-620 gastric cancer
Procedure: as §2, with “instructions. A non-binding, irrelevant negative control ADC conjugated to MMAE was also included in all assays to confirm that cell killing was antigen dependent.” for “instructions.”

[5] = test system: NHDF (dermal fibroblasts); assay: Cytotoxicity assay (CellTiter-Glo, 6 days); type: cell-based; conditions: NHDF (dermal fibroblasts) non-tumor; relative to untreated control at ≤1 μg/mL in a six day proliferation
Procedure: as §2, with “instructions. A non-binding, irrelevant negative control ADC conjugated to MMAE was also included in all assays to confirm that cell killing was antigen dependent.” for “instructions.”

[6] = test system: PrEC (prostate epithelial); assay: Cytotoxicity assay (CellTiter-Glo, 6 days); type: cell-based; conditions: PrEC (prostate epithelial) non-tumor; relative to untreated control at ≤1 μg/mL in a six day proliferation
Procedure: as §2, with “instructions. A non-binding, irrelevant negative control ADC conjugated to MMAE was also included in all assays to confirm that cell killing was antigen dependent.” for “instructions.”

[7] = test system: HUVEC (vascular endothelial); assay: Cytotoxicity assay (CellTiter-Glo, 6 days); type: cell-based; conditions: HUVEC (vascular endothelial) non-tumor; relative to untreated control at ≤1 μg/mL in a six day proliferation
Procedure: as §2, with “instructions. A non-binding, irrelevant negative control ADC conjugated to MMAE was also included in all assays to confirm that cell killing was antigen dependent.” for “instructions.”

[8] = test system: HMEC (mammary epithelial); assay: Cytotoxicity assay (CellTiter-Glo, 6 days); type: cell-based; conditions: HMEC (mammary epithelial) non-tumor; relative to untreated control at ≤1 μg/mL in a six day proliferation
Procedure: as §2, with “instructions. A non-binding, irrelevant negative control ADC conjugated to MMAE was also included in all assays to confirm that cell killing was antigen dependent.” for “instructions.”

[9] = relative to untreated control at ≤1 μg/mL in a six day proliferation
[10] = read-out: ABBV-399 IC50, cell proliferation assay, Table 7B

## ABBV-399: ADC comprised of the cMet targeting antibody ABT-700 conjugated to MMAE through a valine citrulline (vc) linker
CTG-0382 colorectal PDX
  TGD (%) tumor growth delay: 126%
CTG-0419 colorectal PDX
  TGD (%) tumor growth delay: 54%
CTG-0115 colorectal PDX
  TGD (%) tumor growth delay: 114%
CTG-0363 NSCL PDX
  TGD (%) tumor growth delay: 0%
CTG-0170 NSCL PDX
  TGD (%) tumor growth delay: 336%
NCI-H820
  Maximal Killing: 87%
[1]
  response: partial responses
NSCLC adenocarcinoma; four patients, 2.7 mg/kg Q3W and erlotinib
  response: partial responses
NSCLC adenocarcinoma; two patients, once every two weeks
  response: either a partial response or a complete response
[2]; Hs746T ABT-700R of approximately 300 mm^3
  tumor response: complete tumor regression
[2]; refractory tumors at mean cohort size approximately 1,000 mm^3, followed by eventual outgrowth
  tumor response: tumor regression
[3]
  tumor response: remained sensitive
[4]; ABT-700 every seven days, ABBV-399 every four days, dose-dependent, FIG. 11A
  in vivo activity, comparison: more active than ABT-700 alone
[4]; tumors relapsed after ABT-700 treatment, FIG. 12A
  tumor response: regression
SNU-5; MET-amplified SNU-5 gastric cancer cells, FIG. 4
  inhibition of proliferation: inhibited proliferation
SNU-5; SNU-5 gastric cancer, relative to untreated control at ≤1 μg/mL in a six day proliferation
  Maximal Killing: 85%
SNU-5; read-out: ABBV-399 IC50, SNU-5 gastric cancer, cell proliferation assay, Table 7B
  IC50: 0.28 nM
MCF-7
  Maximal Killing: 0%
MDA-MB-231
  Maximal Killing: 0%
IM-95; [9]
  Maximal Killing: 53%
IM-95; [10]
  IC50: 1.7 nM
HT-29; [9]
  Maximal Killing: 70%
HT-29; [10]
  IC50: 9 nM
SNU-620; [9]
  Maximal Killing: 80%
SNU-620; [10]
  IC50: 0.17 nM
[5]
  Maximal Killing: 0%
[6]
  Maximal Killing: 0%
[7]
  Maximal Killing: 6%
[8]
  Maximal Killing: 0%
